For assay [1], the target named is Ribosyldihydronicotinamide dehydrogenase [quinone] (Homo sapiens) (UniProt P16083). Kind of assay: (§1) ML2 (MT3) CEREP ligand profiling. The settings on record: Compound concentration 10.0 uM.
Assay [2] addresses Ribosyldihydronicotinamide dehydrogenase [quinone] (Homo sapiens, UniProt P16083). Described as §1.
Assay [3] deals with Ephrin type-A receptor 5 (Homo sapiens) (UniProt P54756). The settings on record: Compound concentration 1000.0 nM.
For assay [4], the target named is Serine/threonine-protein kinase PAK 1 (Homo sapiens) (UniProt Q13153). The settings on record: Compound concentration 1000.0 nM.
Chain of Serine/threonine-protein kinase PAK 1 (Homo sapiens) (Q13153 whole entry): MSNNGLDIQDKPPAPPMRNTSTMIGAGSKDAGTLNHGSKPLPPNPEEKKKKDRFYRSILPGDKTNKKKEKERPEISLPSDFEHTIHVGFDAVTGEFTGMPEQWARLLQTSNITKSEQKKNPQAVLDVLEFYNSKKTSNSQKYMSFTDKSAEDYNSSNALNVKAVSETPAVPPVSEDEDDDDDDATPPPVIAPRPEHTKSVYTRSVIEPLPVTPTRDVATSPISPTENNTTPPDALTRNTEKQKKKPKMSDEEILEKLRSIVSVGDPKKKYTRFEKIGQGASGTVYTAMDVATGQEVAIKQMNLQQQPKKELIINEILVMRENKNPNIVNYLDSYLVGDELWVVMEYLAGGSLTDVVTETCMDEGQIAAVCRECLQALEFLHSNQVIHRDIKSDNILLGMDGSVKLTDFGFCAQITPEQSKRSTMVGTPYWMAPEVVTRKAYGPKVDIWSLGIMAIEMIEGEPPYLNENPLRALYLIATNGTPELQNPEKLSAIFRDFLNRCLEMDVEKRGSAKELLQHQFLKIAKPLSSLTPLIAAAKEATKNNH
Assay [5] concerns the target Ribosomal protein S6 kinase alpha-6 (Homo sapiens) (UniProt Q9UK32). The settings on record: Compound concentration 1000.0 nM.
The target of assay [6] is SRSF protein kinase 1 (Homo sapiens) (UniProt Q96SB4). The settings on record: Compound concentration 1000.0 nM.
Assay [7] has as its target 5-hydroxytryptamine receptor 1E (Homo sapiens) (UniProt P28566). The settings on record: Compound concentration 10.0 uM.
In assay [8] the target is T1, 5-hydroxytryptamine receptor 3A (Homo sapiens) (UniProt P46098).
T1 sequence (whole entry): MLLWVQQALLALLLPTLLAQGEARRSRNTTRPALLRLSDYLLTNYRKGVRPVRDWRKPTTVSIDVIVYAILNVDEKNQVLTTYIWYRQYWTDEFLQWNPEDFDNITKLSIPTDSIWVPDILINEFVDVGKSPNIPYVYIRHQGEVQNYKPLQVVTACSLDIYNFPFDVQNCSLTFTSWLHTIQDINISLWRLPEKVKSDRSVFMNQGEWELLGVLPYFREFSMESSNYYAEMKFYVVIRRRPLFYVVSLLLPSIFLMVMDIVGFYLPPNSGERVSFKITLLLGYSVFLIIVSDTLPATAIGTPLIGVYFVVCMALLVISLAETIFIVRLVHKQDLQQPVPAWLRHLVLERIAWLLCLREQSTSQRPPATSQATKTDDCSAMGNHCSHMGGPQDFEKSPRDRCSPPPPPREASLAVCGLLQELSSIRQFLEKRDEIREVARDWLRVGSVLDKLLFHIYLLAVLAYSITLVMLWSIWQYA
The settings on record: Compound concentration 10.0 uM.

Assay [9] addresses 5-hydroxytryptamine receptor 5A (Homo sapiens) (UniProt P47898). The settings on record: Compound concentration 10.0 uM.
Assay [10] addresses 5-hydroxytryptamine receptor 6 (Homo sapiens) (UniProt P50406). The settings on record: Compound concentration 10.0 uM.
Assay [11] concerns the target D(3) dopamine receptor (Homo sapiens) (UniProt P35462). The settings on record: Compound concentration 10.0 uM.
Assay [12] deals with Sodium-dependent noradrenaline transporter (Homo sapiens) (UniProt P23975). The settings on record: Compound concentration 10.0 uM.
Chain of Sodium-dependent noradrenaline transporter (Homo sapiens) (P23975 whole entry): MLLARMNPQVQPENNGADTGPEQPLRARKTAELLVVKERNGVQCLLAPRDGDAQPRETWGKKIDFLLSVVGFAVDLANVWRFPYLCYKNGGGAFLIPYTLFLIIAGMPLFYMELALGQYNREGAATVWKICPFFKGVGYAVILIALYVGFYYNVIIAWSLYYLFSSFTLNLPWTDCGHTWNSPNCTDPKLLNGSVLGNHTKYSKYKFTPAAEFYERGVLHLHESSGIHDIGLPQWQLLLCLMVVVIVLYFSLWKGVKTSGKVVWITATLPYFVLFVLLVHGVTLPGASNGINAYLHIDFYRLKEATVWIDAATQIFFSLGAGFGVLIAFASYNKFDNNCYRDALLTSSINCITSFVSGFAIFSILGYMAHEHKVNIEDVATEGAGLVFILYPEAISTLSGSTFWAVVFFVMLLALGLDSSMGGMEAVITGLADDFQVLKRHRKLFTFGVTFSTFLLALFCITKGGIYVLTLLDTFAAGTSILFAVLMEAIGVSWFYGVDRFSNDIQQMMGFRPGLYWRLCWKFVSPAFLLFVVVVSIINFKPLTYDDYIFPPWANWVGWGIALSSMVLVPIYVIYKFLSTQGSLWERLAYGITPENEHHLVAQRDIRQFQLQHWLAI
The target in assay [13] is Kappa-type opioid receptor (Homo sapiens) (UniProt P41145). The settings on record: Compound concentration 10.0 uM.
Chain of Kappa-type opioid receptor (Homo sapiens) (P41145 whole entry): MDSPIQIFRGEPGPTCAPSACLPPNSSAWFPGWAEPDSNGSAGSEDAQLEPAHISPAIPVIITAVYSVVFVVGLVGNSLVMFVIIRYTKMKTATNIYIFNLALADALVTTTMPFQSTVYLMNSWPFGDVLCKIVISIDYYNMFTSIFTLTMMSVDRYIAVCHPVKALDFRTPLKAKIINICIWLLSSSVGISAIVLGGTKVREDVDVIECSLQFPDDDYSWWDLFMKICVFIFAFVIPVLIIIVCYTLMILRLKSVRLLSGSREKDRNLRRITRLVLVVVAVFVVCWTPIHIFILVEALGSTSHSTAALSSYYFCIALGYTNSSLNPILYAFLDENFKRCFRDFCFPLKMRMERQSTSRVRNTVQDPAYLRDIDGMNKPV
In assay [14] the target is Histamine H2 receptor (Homo sapiens) (UniProt P25021). The settings on record: Compound concentration 10.0 uM.
Chain of Histamine H2 receptor (Homo sapiens) (P25021 whole entry): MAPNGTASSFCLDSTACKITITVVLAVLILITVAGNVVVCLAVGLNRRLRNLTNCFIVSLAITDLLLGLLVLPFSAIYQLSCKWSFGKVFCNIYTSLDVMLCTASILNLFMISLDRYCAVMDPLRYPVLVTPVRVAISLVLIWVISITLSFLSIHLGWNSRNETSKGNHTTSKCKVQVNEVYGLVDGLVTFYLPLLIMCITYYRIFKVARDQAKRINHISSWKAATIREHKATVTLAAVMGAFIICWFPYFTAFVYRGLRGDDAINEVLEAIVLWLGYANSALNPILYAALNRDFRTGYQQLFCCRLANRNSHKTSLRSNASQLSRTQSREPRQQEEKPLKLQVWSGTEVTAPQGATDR
The target of assay [15] is Alpha-1A adrenergic receptor (Homo sapiens) (UniProt P35348). The settings on record: Compound concentration 10.0 uM.
Chain of Alpha-1A adrenergic receptor (Homo sapiens) (P35348 whole entry): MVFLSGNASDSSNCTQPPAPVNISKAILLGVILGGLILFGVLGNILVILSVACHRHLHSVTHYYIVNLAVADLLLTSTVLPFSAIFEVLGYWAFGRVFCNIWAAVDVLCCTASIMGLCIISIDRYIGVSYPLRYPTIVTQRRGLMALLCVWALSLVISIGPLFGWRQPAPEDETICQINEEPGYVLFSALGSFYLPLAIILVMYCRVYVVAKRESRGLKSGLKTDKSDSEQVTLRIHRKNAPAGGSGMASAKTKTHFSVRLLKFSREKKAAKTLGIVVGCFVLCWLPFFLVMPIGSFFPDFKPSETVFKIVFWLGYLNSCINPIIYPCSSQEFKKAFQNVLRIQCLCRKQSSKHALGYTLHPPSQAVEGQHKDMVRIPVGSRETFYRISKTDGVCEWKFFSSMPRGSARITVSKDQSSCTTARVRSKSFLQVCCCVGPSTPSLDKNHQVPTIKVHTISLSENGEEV
Assay [16] has as its target T2, Alpha-2A adrenergic receptor (Homo sapiens) (UniProt P08913).
T2 sequence (whole entry): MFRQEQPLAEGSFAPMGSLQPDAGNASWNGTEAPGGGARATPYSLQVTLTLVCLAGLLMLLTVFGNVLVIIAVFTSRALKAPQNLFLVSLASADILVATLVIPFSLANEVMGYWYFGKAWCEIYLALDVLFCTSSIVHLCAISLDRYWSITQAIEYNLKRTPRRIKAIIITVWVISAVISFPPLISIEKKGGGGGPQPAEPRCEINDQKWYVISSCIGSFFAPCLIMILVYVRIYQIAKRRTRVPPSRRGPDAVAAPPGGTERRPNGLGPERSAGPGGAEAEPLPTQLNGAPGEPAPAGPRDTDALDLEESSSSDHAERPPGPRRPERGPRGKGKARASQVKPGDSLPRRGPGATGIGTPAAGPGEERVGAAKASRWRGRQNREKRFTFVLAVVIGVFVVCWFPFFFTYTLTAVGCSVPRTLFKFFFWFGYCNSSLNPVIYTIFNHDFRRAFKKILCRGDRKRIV
The settings on record: Compound concentration 10.0 uM.

For assay [17], the target named is T3, Muscarinic acetylcholine receptor M1 (Homo sapiens) (UniProt P11229).
T3 sequence (whole entry): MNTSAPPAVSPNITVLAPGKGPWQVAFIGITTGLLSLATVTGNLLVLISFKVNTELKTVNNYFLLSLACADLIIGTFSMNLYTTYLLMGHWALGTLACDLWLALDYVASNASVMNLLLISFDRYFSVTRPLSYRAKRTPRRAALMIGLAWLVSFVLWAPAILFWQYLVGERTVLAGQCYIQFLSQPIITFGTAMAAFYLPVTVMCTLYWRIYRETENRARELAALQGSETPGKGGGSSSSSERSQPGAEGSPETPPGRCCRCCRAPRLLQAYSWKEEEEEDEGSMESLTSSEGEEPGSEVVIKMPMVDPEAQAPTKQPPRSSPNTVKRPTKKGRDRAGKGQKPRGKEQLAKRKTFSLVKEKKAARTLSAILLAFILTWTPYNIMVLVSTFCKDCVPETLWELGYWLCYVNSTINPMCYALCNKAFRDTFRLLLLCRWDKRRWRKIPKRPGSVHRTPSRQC
The settings on record: Compound concentration 10.0 uM.

Assay [18] concerns the target T4, Muscarinic acetylcholine receptor M2 (Homo sapiens) (UniProt P08172).
T4 sequence (whole entry): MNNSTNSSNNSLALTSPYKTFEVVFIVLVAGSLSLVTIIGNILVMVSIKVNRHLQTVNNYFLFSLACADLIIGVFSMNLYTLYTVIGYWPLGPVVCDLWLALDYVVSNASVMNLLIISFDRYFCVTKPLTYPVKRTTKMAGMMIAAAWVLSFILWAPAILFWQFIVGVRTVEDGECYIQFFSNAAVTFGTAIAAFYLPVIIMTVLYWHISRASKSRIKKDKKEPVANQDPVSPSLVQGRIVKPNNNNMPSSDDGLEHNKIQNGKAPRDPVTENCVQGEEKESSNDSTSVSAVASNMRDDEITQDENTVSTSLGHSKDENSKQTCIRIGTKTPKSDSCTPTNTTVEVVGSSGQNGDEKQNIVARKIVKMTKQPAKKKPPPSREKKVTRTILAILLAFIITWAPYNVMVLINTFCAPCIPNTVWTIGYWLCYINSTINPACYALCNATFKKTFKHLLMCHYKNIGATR
The settings on record: Compound concentration 10.0 uM.

Assay [19] addresses GABA-A receptor; anion channel (Rattus norvegicus) (UniProt O09028+P15431+P18506+P18508+P19969+P20236+P23574+P23576+P28471+P28473+P30191+P62813+P63079+P63138+Q91ZM7+Q9ES14). The settings on record: Compound concentration 10.0 uM.

What is called inhibition is the drop in the measured response relative to a control, in per cent. Usually pIC50 stands for the IC50 on a negative log10 scale, so that one unit is a factor of ten. A word on the pKi: it is −log10 of the Ki, conventionally taken in molar units. High values mean a low Ki, low ones a high Ki. In general, residual activity refers to the share of the control activity or signal that is left under treatment.

Molecules are shown by their SMILES. pIC50, pKi: −log10 of the molar value.

Chain of 5-hydroxytryptamine receptor 1E (Homo sapiens) (P28566 whole entry): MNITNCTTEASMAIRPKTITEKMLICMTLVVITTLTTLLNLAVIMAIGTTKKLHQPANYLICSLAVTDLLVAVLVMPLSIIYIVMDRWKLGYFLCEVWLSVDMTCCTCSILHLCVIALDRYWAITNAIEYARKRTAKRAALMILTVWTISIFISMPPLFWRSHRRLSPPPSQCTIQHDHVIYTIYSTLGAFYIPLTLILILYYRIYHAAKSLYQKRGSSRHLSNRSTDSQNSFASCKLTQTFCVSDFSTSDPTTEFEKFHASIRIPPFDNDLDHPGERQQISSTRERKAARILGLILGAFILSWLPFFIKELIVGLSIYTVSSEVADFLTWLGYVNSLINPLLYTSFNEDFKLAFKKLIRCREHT
Chain of D(3) dopamine receptor (Homo sapiens) (P35462 whole entry): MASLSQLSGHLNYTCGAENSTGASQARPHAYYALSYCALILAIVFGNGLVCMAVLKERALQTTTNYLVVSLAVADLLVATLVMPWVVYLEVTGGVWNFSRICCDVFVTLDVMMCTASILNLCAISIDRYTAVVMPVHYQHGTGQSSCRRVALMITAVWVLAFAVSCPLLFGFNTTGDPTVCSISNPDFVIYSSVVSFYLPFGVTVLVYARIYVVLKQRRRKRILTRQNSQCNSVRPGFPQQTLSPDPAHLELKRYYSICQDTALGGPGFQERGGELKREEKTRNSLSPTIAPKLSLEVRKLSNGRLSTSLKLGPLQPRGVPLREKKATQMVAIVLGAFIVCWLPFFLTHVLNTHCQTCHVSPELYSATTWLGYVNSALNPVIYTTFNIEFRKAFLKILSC
Chain of 5-hydroxytryptamine receptor 6 (Homo sapiens) (P50406 whole entry): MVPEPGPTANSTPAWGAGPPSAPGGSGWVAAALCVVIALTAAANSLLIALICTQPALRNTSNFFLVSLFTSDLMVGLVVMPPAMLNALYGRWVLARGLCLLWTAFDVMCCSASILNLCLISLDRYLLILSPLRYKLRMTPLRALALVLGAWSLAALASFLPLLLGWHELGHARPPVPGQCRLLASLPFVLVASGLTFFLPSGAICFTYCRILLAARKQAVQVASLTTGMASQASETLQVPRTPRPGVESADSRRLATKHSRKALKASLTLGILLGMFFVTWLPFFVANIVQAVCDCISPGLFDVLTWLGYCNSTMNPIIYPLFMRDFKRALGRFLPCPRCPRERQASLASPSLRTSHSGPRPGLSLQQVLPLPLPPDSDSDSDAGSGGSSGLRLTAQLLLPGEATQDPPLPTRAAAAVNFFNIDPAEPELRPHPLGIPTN
Chain of Ribosyldihydronicotinamide dehydrogenase [quinone] (P16083 whole entry): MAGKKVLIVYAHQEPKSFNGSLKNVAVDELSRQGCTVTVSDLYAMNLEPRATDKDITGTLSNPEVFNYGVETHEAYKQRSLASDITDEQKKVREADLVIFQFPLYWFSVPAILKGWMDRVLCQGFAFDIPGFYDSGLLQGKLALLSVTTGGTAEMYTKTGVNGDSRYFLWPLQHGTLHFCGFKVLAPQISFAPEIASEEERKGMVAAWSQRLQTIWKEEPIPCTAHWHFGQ
Chain of 5-hydroxytryptamine receptor 5A (Homo sapiens) (P47898 whole entry): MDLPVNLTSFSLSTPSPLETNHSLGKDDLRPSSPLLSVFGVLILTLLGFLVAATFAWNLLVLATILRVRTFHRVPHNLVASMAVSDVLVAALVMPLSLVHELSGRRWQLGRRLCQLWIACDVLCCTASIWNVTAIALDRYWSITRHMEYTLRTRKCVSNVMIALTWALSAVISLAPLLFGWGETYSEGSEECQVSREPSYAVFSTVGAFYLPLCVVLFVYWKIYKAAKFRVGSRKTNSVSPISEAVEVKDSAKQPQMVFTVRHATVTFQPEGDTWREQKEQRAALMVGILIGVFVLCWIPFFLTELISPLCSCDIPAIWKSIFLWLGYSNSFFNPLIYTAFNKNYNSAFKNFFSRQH
Chain of Ribosomal protein S6 kinase alpha-6 (Homo sapiens) (Q9UK32 whole entry): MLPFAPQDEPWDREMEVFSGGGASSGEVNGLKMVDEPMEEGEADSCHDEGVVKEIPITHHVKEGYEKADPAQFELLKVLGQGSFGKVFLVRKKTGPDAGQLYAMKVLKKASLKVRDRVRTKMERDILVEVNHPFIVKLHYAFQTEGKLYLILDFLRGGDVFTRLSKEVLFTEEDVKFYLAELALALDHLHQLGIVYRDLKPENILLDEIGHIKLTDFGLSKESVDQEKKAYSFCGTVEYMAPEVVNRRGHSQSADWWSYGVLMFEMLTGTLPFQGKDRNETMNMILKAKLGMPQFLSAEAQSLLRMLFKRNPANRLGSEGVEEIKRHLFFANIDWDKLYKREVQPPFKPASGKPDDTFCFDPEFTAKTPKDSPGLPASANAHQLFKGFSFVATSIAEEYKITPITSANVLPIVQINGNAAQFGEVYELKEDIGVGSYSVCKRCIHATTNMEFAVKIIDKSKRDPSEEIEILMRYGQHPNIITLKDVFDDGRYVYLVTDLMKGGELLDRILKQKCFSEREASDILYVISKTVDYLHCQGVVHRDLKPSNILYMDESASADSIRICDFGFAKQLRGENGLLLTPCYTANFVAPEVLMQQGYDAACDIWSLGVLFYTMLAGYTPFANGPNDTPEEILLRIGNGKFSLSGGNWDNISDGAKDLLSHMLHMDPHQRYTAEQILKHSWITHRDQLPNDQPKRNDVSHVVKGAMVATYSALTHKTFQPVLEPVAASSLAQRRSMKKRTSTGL

`COc1ccc2cc(OCC3(C(=O)O)CN(C(=O)c4ccc(F)cc4)C3)ccc2c1` [PF-04418948]: the inhibition is 93% in assay [1]; 11% in assay [7]; 0.08% in assay [8]; -8.97% in [9]; -6.47% in assay [10]; 33% in assay [11]. Further, the inhibition in [12] was 11%; in assay [13], 16.4%; in assay [14], 3%; in [15], 2.52%; in assay [16], 21.8%; in assay [17], -0.03%. The inhibition in assay [18] is 16.7%; in assay [19], 18.7%. The pIC50 in assay [2] is 6.28. Further, the pKi in [2] was 6.28. Moreover, the residual activity in assay [3] was 78%; in [4] it was 87%; in assay [5], 78%; in [6] it was 72%.

On to `O=C(c1ccc(F)cc1)N1CC(COc2ccc(Br)cc2)(C(=O)O)C1` [PF-04475866], for which the inhibition in assay [7] was 12.2%; in assay [8] it was 16.6%; in [10], -2.64%; in assay [11] it was 3.89%; in assay [12], 16.8%; in assay [13], -9.45%. Further, the inhibition in assay [14] is 15.7%; in assay [15] it was -4.09%; in [16], 14.2%; in assay [17] it was -0.69%; in [18] it was 26.7%; in [19] it was -5.33%.

Source of the values: ChEMBL document CHEMBL4507298 (2021).
